pEC50: −log10 of the molar value.

For the assay, the target named is T1, human GPR119 (Homo sapiens, UniProt Q8TDV5).
T1 construct: expression vector for human GPR119 cDNA (Acc. No. NP_848566); expressed in transfected cells; Min-6/hGPR119
T1 sequence (Q8TDV5 1-335): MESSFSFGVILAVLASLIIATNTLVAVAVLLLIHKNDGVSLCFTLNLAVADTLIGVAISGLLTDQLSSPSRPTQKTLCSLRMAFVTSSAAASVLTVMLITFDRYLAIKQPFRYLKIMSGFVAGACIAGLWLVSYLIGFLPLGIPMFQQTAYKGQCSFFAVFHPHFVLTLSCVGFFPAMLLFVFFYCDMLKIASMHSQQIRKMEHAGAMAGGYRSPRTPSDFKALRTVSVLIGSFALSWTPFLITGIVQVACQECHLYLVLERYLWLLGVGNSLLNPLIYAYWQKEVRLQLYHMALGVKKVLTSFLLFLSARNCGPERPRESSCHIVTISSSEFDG
The assay can be described thus: AlphaScreen cAMP assay in MIN6 cells stably transfected with human GPR119. In kind it is cell-based. The following applies: Min-6/hGPR119 cells, 45 min at room temperature. As to the method: The compounds of formula I according to the invention modulate the activity of the G-protein-coupled receptor GPR119. The effect of the compounds on the activation of GPR119 and on the stimulation of intracellular cAMP concentration is determined using the AlphaScreen cAMP Assay Kit (Cat. No. #6760625R) made by PerkinElmer.
MIN6 cells [Miyazaki J et al. Endocrinology. 1990 July; 127(1):126-32] are stably transfected with an expression vector for human GPR119 cDNA (Acc. No. NP_848566). Min-6/hGPR119 cells are cultured in DMEM, 10% FBS, 50 μM β-mercaptoethanol, 0.3 mg/mL Geniticin, 2 mM GlutaMAX at 37° C. 5% CO2. For the assay, the cells are seeded in Optiplates (white, 384-well, 160 W—barcoded, TC, sterile with lid, Cat. No. #6007688 (Perkin Elmer); 10000 cells/well; 50 μl). The plates covered with lids are then incubated for 24 hours at 37° C./5% CO2. After the medium is aspirated from the wells completely, 10 μl of the test compound are added, the compounds are diluted using stimulating buffer (140 mM NaCl, 3.6 mM KCl, 0.5 mM NaH2PO4, 0.5 mM MgSO4, 1.5 mM CaCl2, 10 mM Hepes, 5 mM NaHCO3; pH 7.4. 0.5 mM IBMX and 0.1% BSA, the final DMSO concentration is 1%). After 45 minutes incubation at room temperature (approx. 20° C.), the cAMP concentrations are determined using the AlphaScreen cAMP Assay Kit (Cat. No. #6760625R from PerkinElmer).
(In general: In Alpha technology, singlet oxygen from a donor bead excites a nearby acceptor bead.)
Broadly, the pEC50 is the negative decadic logarithm of the EC50, by convention in mol/L. Consider `COC[C@H]1CCCN1C(=O)Cc1ccc(-c2ncc(C(=O)N(C3CC3)C3CCN(C(=O)OC(C)(C)C)CC3)cn2)cc1` [Example 235, 4-[Cyclopropyl-(2-{4-[2-(2-methoxymethyl-pyrrolidin-1-yl)-2-oxo-ethyl]-phenyl}-pyrimidine-5-carbonyl)-amino]-piperidine-1-carboxylic acid tert-butyl ester], for which the pEC50 was 6.51.

With `CC(C)(C)OC(=O)N1CCC(N(C(=O)c2cnc(-c3ccc(C(=O)NCCn4ccc(C5CC5)n4)cc3)nc2)C2CC2)CC1` [Example 207, 4-[Cyclopropyl-(2-{4-[2-(3-cyclopropyl-pyrazol-1-yl)-ethylcarbamoyl]-phenyl}-pyrimidine-5-carbonyl)-amino]-piperidine-1-carboxylic acid tert-butyl ester], the pEC50 is 6.43.

As to `CN(CCOCC1CC1)C(=O)c1ccc(-c2ncc(C(=O)N(C3CC3)C3CCN(C(=O)OC(C)(C)C)CC3)cn2)cc1F` [Example 124, 4-[Cyclopropyl-(2-{4-[(2-cyclopropylmethoxy-ethyl)-methyl-carbamoyl]-3-fluoro-phenyl}-pyrimidine-5-carbonyl)-amino]-piperidine-1-carboxylic acid tert-butyl ester], the pEC50 is 6.99. This pEC50 lies 0.56 log units higher than the previous one.

Take `CC(C)(C)OC(=O)N1CCC(N(C(=O)c2cnc(-c3ccc(C(=O)Nc4ccc(CO)cc4)c(F)c3)nc2)C2CC2)CC1` [Example 121, 4-(Cyclopropyl-{2-[3-fluoro-4-(4-hydroxymethyl-phenylcarbamoyl)-phenyl]-pyrimidine-5-carbonyl}-amino)-piperidine-1-carboxylic acid tert-butyl ester]: the pEC50 is 6.74.

`CC(C)(C)OC(=O)N1CCC(N(C(=O)c2cnc(-c3ccc(CC(=O)NCc4ccccn4)cc3)nc2)C2CC2)CC1` [Example 215, 4-{Cyclopropyl-[2-(4-{[(pyridin-2-ylmethyl)-carbamoyl]-methyl}-phenyl)-pyrimidine-5-carbonyl]-amino}-piperidine-1-carboxylic acid tert-butyl ester] gave a pEC50 of 6.41.

In the case of `CC(C)(C)OC(=O)N1CCC(N(C(=O)c2cnc(-c3ccc(C(=O)N4CCCC4CO)cc3)nc2)C2CC2)CC1` (stereo not shown) [Example 242, 4-(Cyclopropyl-{2-[4-(2-hydroxymethyl-pyrrolidine-1-carbonyl)-phenyl]-pyrimidine-5-carbonyl}-amino)-piperidine-1-carboxylic acid tert-butyl ester], the negative logarithm of the EC50 (pEC50) was 6.23.

`CN(CCOCC1CC1)C(=O)c1ccc(-c2ncc(C(=O)N(C3CC3)C3CCN(C(=O)OC(C)(C)C)CC3)cn2)c(F)c1` [Example 138, 4-[Cyclopropyl-(2-{4-[(2-cyclopropylmethoxy-ethyl)-methyl-carbamoyl]-2-fluoro-phenyl}-pyrimidine-5-carbonyl)-amino]-piperidine-1-carboxyli acid tert-butyl ester] had a pEC50 of 6.46. This pEC50 lies 0.23 log units higher than the previous one.

As to `CC(C)(C)OC(=O)N1CCC(N(C(=O)c2noc(-c3ccc(C#N)cc3F)n2)C2CC2)CC1` [Example 18, 4-{[5-(4-Cyano-2-fluoro-phenyl)-[1,2,4]oxadiazole-3-carbonyl]-cyclopropyl-amino}-piperidine-1-carboxylic acid tert-butyl ester], the pEC50 is 8.30.

As to `CC(C)(C)OC(=O)N1CCC(N(C(=O)c2cnc(-c3ccc(C#N)cc3)nc2)C2CC2)CC1` [Example 72, 4-{[2-(4-Cyano-phenyl)-pyrimidine-5-carbonyl]-cyclopropyl-amino}-piperidine-1-carboxylic acid tert-butyl ester], the pEC50 is 7.85.

`COCC(C)N(C)C(=O)c1ccc(-c2ncc(C(=O)N(C3CC3)C3CCN(C(=O)OC(C)(C)C)CC3)cn2)c(F)c1` (stereo not shown) [Example 135, 4-[Cyclopropyl-(2-{2-fluoro-4-[(2-methoxy-1-methyl-ethyl)-methyl-carbamoyl]-phenyl}-pyrimidine-5-carbonyl)-amino]-piperidine-1-carboxylic acid tert-butyl ester] had a negative logarithm of the EC50 (pEC50) of 6.04.

`COc1ccccc1-c1ncc(C(=O)N(C2CC2)C2CCN(C(=O)OC(C)(C)C)CC2)cn1` [Example 73, 4-{Cyclopropyl-[2-(2-methoxy-phenyl)-pyrimidine-5-carbonyl]-amino}-piperidine-1-carboxylic acid tert-butyl ester]: the pEC50 is 5.78.

For `CC(C)(C)OC(=O)N1CCC(N(C(=O)c2cnc(-c3ccc(C(=O)NCCn4ccc(C5CC5)n4)c(F)c3)nc2)C2CC2)CC1` [Example 169, 4-[Cyclopropyl-(2-{4-[2-(3-cyclopropyl-pyrazol-1-yl)-ethylcarbamoyl]-3-fluoro-phenyl}-pyrimidine-5-carbonyl)-amino]-piperidine-1-carboxylic acid tert-butyl ester], the pEC50 was 6.75.

On to `CC(C)(C)OC(=O)N1CCC(N(C(=O)c2ccc(-c3cn[nH]c3)nc2)C2CC2)CC1` [Example 3, 4-{Cyclopropyl-[6-(1H-pyrazol-4-yl)-pyridine-3-carbonyl]-amino}-piperidine-1-carboxylic acid tert-butyl ester], for which the negative logarithm of the EC50 (pEC50) was 6.69.

Turning to `COCc1sc(NC(=O)c2ccc(-c3ncc(C(=O)N(C4CC4)C4CCN(C(=O)OC(C)(C)C)CC4)cn3)cc2)nc1C` [Example 185, 4-(Cyclopropyl-{2-[4-(5-methoxymethyl-4-methyl-thiazol-2-ylcarbamoyl)-phenyl]-pyrimidine-5-carbonyl}-amino)-piperidine-1-carboxylic acid tert-butyl ester], the pEC50 is 6.41.

Consider `C[C@H](OC(=O)N1CCC(N(C(=O)c2cnc(-c3cnco3)cn2)C2CC2)CC1)C(F)(F)F` [Example 258, 4-[Cyclopropyl-(5-oxazol-5-yl-pyrazine-2-carbonyl)-amino]-piperidine-1-carboxylic acid (S)-2,2,2-trifluoro-1-methyl-ethyl ester], for which the pEC50 was 7.21.

The molecule `CC(C)(C)OC(=O)N1CCC(N(C(=O)c2cnc(-c3ccc(C(=O)Nc4ccc(CO)cc4)cc3)nc2)C2CC2)CC1` [Example 176, 4-(Cyclopropyl-{2-[4-(4-hydroxymethyl-phenylcarbamoyl)-phenyl]-pyrimidine-5-carbonyl}-amino)-piperidine-1-carboxylic acid tert-butyl ester] gave a pEC50 of 6.46.

With `CC(C)(C)OC(=O)N1CCC(N(C(=O)c2cnc(-c3ccc(C(=O)NC4CCCOC4)c(F)c3)nc2)C2CC2)CC1` (stereo not shown) [Example 103, 4-(Cyclopropyl-{2-[3-fluoro-4-(tetrahydro-pyran-3-ylcarbamoyl)-phenyl]-pyrimidine-5-carbonyl}-amino)-piperidine-1-carboxylic acid tert-butyl ester], the pEC50 was 6.77. This pEC50 is 0.31 log units higher than that of the molecule before.

With `CN(CC#N)C(=O)c1ccc(-c2ncc(C(=O)N(C3CC3)C3CCN(C(=O)OC(C)(C)C)CC3)cn2)cc1F` [Example 132, 4-({2-[4-(Cyanomethyl-methyl-carbamoyl)-3-fluoro-phenyl]-pyrimidine-5-carbonyl}-cyclopropyl-amino)-piperidine-1-carboxylic acid tert-butyl ester], the pEC50 is 7.01.

Molecule `COc1ccc(NC(=O)Cc2ccc(-c3ncc(C(=O)N(C4CC4)C4CCN(C(=O)OC(C)(C)C)CC4)cn3)cc2)c(OC)c1` [Example 188, 4-[Cyclopropyl-(2-{4-[(2,4-dimethoxy-phenylcarbamoyl)-methyl]-phenyl}-pyrimidine-5-carbonyl)-amino]-piperidine-1-carboxylic acid tert-butyl ester] gave a pEC50 of 6.51.
